Assay results: PubChem BioAssay (NCI)
Where “and” joins values, the source holds several entries; their conditions need not be identical. Identical values can stand only once.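 Five compound concentrations were applied to cells in 96-well plates for 48 hours; endpoints were derived by simple linear interpolation of the resulting dose-response curve. Abbreviation: GI50, concentration required for 50% inhibition of growth. TGI is the concentration that stops growth completely.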

Columns and labels:
Assay in all cases: inhibition of tumour cell growth, NCI panel, 48 h
HOP-62 NSCLC = test system: HOP-62 NSCLC
OVCAR-8 ovarian = test system: OVCAR-8 ovarian
ACHN renal = test system: ACHN renal
UO-31 renal = test system: UO-31 renal
SF-539 CNS = test system: SF-539 CNS
SK-MEL-2 melanoma = test system: SK-MEL-2 melanoma
NCI-H460 lung = test system: NCI-H460 lung
PC-3 prostate = test system: PC-3 prostate
HCT-15 colon = test system: HCT-15 colon
MCF7 breast = test system: MCF7 breast

Compound | TGI (HOP-62 NSCLC) [µM] | TGI (OVCAR-8 ovarian) | TGI (ACHN renal) [µM] | TGI (UO-31 renal) [µM] | TGI (SF-539 CNS) [µM] | TGI (SK-MEL-2 melanoma) [µM] | TGI (NCI-H460 lung) | TGI (PC-3 prostate) | TGI (HCT-15 colon) | TGI (MCF7 breast) | GI50 (OVCAR-8 ovarian) [µM] | GI50 (HCT-15 colon) [µM] | GI50 (ACHN renal) [µM] | GI50 (UO-31 renal) [µM] | GI50 (SF-539 CNS) [µM] | GI50 (SK-MEL-2 melanoma) [µM] | GI50 (NCI-H460 lung) [µM] | GI50 (HOP-62 NSCLC) [µM] | GI50 (PC-3 prostate) [µM] | GI50 (MCF7 breast) [µM]
COc1ccc2c(c1)[n+]([O-])c(-c1cccc(Cl)c1)c(N)[n+]2[O-] | > 100 | > 100 µM | > 100 | > 100 | > 100 | > 100 | > 100 µM | – | – | – | – | – | – | – | – | – | – | – | – | –
COc1cc2c(c(O)c1Cl)C(=O)c1c(O)cc(C[C@H](C)O)cc1[C@H]2[C@H]1c2cc(C[C@H](C)O)cc(O)c2C(=O)c2c1cc(OC)c(Cl)c2O | – | 75 µM and > 100 µM | – | – | – | – | 17.7 µM and 52.1 µM | 75 µM and > 100 µM | 75 µM and > 100 µM | 75 µM and 94.4 µM | – | – | – | – | – | – | – | – | – | –
O=C(O)CN(c1ccccc1)S(=O)(=O)c1cccc([N+](=O)[O-])c1 | – | > 100 µM | > 100 | > 100 | > 100 | > 100 | > 100 µM | – | > 100 µM | – | – | – | – | – | – | – | – | – | – | –
C/C(CCn1[nH]c(=O)ccc1=O)=N\NC(=O)C(N)=O | > 100 | > 100 µM | > 100 | > 100 | > 100 | > 100 | > 100 µM | – | > 100 µM | – | – | – | – | – | – | – | – | – | – | –
O=C1C(=c2ccc(=C3C(=O)c4ccc([N+](=O)[O-])cc4[N+]3=O)cc2)N([O-])c2cc([N+](=O)[O-])ccc21 | > 100 | > 100 µM | > 100 | > 100 | > 100 | > 100 | > 100 µM | – | > 100 µM | – | > 100 | > 100 | > 100 | > 100 | > 100 | > 100 | > 100 | – | – | –
O=C([O][Hg][c]1ccccc1)c1ccccc1 | 4.84 | – | 2.99 | 2.89 | 3.26 | 2.91 | 9.27 µM | 14.7 µM | 1.79 µM | – | – | 0.437 | 1.57 | 1.47 | 1.58 | 1.35 | 2.6 | 2.16 | 3.29 | –
CCCCCCCCCCCCCC[n+]1ccccc1 | – | – | 6.18 | 4.82 | 2.6 | 2.19 | 2.73 µM | 0.774 µM | 13.2 µM | 2.66 µM | – | 1.9 | 1.27 | 1.42 | 1.28 | 0.592 | 1.22 | – | 0.204 | 0.489
COC(=O)C1=COC2OC3C(C(C)O)C(=O)OC34C=CC1C24 (stereo not drawn) | – | 47.2 µM | > 100 | > 100 | > 100 | > 100 | > 100 µM | > 100 µM | > 100 µM | > 100 µM | – | – | – | – | – | – | – | – | – | –
COC(=O)[C@H]1COC(=S)N1C(=O)[C@@H](C)[C@H](O)C(C)C | > 100 | > 100 µM | > 100 | > 100 | > 100 | > 100 | > 100 µM | – | > 100 µM | – | – | – | – | – | – | – | – | – | – | –
O=C(CN1CCN(Cc2ccccc2Cl)CC1)NC1CC(=O)c2c(Br)sc(Br)c21 (stereo not drawn) | – | 54.8 µM | > 100 | 31.8 | 36.1 | 31.4 | 35.2 µM | 34.6 µM | 34.1 µM | 33.8 µM | 24.8 | 18 | 35.1 | 17.4 | 20.3 | 15.7 | 18.3 | – | 16.1 | 18.1
O=C(COc1ccccc1Cl)N1N=C(c2ccccc2)CC1(O)c1ccccc1 (stereo not drawn) | 28.5 | 32.1 µM | 55.7 | 35.9 | 34.2 | 36.8 | 32 µM | – | 33.6 µM | – | – | – | – | – | – | – | – | – | – | –
COC(=O)Cc1c([C@@]2(C)CCCC(C)(C)C2)ccc2c1C(=O)OC2 | – | > 100 µM | 48.2 | 15.3 | 31.6 | – | 33.3 µM | – | 24.1 µM | – | – | – | – | – | – | – | – | – | – | –
COc1ccc(Nc2nc3cc(C(F)(F)F)ccc3nc2-c2ccccc2)cc1OC | 39.3 | > 100 µM | > 100 | > 100 | > 100 | > 100 | > 100 µM | – | > 100 µM | – | – | – | – | – | – | – | – | – | – | –
OCC1OC2c3ccccc3COC2C1OCc1ccccc1 (stereo not drawn) | – | > 100 µM | > 100 | > 100 | – | > 100 | > 100 µM | – | > 100 µM | – | – | – | – | – | – | – | – | – | – | –
c1ccc2c(c1)SC(=C1Sc3ccccc3S1)S2 | > 100 | > 100 µM | > 100 | > 100 | – | – | > 100 µM | – | > 100 µM | – | – | – | – | – | – | – | – | – | – | –
